{
  "source": "paper PMC6934184",
  "about": "“Selective DNA-PKcs inhibition extends the therapeutic index of localized radiotherapy and chemotherapy” (The Journal of Clinical Investigation, 2019)",
  "target": "T1, CHEK1 (CHK1) (Homo sapiens, UniProt O14757)",
  "T1 construct": "purchased Thermo Fisher Scientific (Life Technologies) SelectScreen",
  "T1 sequence (O14757 whole entry)": "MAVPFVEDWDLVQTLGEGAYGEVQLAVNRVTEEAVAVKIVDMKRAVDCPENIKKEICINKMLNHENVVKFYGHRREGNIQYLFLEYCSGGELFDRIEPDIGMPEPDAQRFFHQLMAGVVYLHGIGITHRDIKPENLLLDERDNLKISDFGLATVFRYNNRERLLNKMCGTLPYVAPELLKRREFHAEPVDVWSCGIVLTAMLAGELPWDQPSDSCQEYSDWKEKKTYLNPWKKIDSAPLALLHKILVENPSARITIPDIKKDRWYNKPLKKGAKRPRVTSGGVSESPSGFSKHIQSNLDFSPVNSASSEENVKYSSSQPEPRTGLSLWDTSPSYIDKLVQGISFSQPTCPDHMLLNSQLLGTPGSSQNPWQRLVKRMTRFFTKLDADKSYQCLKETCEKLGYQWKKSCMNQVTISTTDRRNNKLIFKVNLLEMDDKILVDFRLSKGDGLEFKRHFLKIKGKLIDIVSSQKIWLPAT",
  "test": "SelectScreen Z'LYTE",
  "assay_type": "biochemical",
  "summary_of_the_method": "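Percent values come from Thermo SelectScreen profiling of NU5455, combining activity and binding assays. CSF1R was run in Z'LYTE format at Km app ATP, and CAMK1 in Adapta format with ATP listed at 10.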",
  "data": [
    {"molecule": "CN(C(=O)CN1CCOCC1)c1ccc2sc3c(-c4cccc5c(=O)cc(N6CC7CCC(C6)O7)oc45)cccc3c2c1", "note": "[NU5455]", "values": [
      {"measurement": "inhibition at 1 µM", "value": 9.3, "unit": "%"}
    ]}
  ]
}
